Reference: publication PMC9232501, “Results of the phase I CCTG IND.231 trial of CX-5461 in patients with advanced solid tumors enriched for DNA-repair deficiencies” (Nature Communications, 2022)
Marks after values point to notes of the source that are not given here.

Legend:
HCT116 cells = assay: ROS measurement with H2DCFDA before/after UVA 125 mJ/cm^2; type: cell-based, Human; details: CX-5461 0.1 μM or PDS 10 μM for 1 h
Protocol: ROS measurement with H2DCFDA: HCT116 cells were treated with vehicle, CX-5461 0.1 μM or PDS 10 μM for 1 h, then were added with H2DCFDA for 45 min before initial fluorescence measurement. Cells were then irradiated with UVA 125 mJ/cm^2, and immediately sent for a second fluorescent measurement. The ratio of the second and the first fluorescent measurement was calculated as the level of ROS induced by UVA. Assays were performed in the 1-hour time frame within which UV damage manifests, in contrast to G4 ligand-induced damage which takes 3–4 h to be measurable.
Supplementary Figures and Tables
Supplementary Figure 1. UVA radiation increased double-stranded DNA breaks and ROS.
Representative pictures of g -H2AX immunofluorescent staining with and without UVA radiation, for […]
condition, quantified in (b) Quantile and mean intensity of g-H2AX level per cell, vertical axis. UV and drug factor conditions, horizontal axis. Experiments were repeated two times (biological duplicates) and similar results were obtained. Number of cells as in Figure 5 g (c) The ratio of ROS level measured after UVA irradiation versus before UVA irradiation was calculated. Biological triplicates. The horizontal bar = median. ***P<0.0001, Welch’s t-test; n=8
(1 picture or pasted object on this page, not shown here)

[1] = tested on: patients with hematologic malignancies; design: method as in PMID 31092402; details: cited from earlier work
[2] = tested on: patients with advanced solid tumors; assay: Phase I dose escalation: safety, tolerability, dose-limiting toxicity (CTCAE v4.0)
Text: Doses were escalated using a 3 + 3 design, which allowed 3 or 4 patients to be initially enrolled in each dose level. […] The MAD was defined as the dose level at which ≥2/3 or ≥2/6 patients experienced dose-limiting toxicity. The RP2D was defined as the next lower dose below the MAD.
DLT included the following drug-related AEs occurring during cycle 1: grade 3 phototoxicity or grade 2 phototoxicity with blistering lasting ≥7 days, if adequate prevention was used; other grades 3 or 4 non-hematologic toxicity (excluding inadequately managed nausea and vomiting, alopecia or grade 3 fatigue lasting <7 days); grade 4 myelosuppression ≥7 days, febrile neutropenia or ≥grade 3 thrombocytopenic bleeding; or other toxicities of concern including those requiring ≥14 days delay in next cycle.
The starting dose was 50 mg/m^2 d1 and 8. An expansion cohort at the RP2D of 10-20 patients with breast cancer and BRCA1/2 (germline) or relevant somatic aberrations was planned.
AEs were assessed according to National Cancer Institute Common Terminology Criteria for Adverse Events (CTCAE) v4.0.

[3] = 325 mg/m^2 d1,8,15, N patients 4
[4] = 650 mg/m^2 d1,8,15, N patients 5
[5] = 40 treated patients, all dose levels
[6] = 475* mg/m^2 d1,8,15, N patients 6

Cc1cnc(CNC(=O)c2c(=O)c3ccc(N4CCCN(C)CC4)nc3n3c2sc2ccccc23)cn1 [CX-5461]
ROS in the presence of UVA (ratio after/before UVA) (HCT116 cells): markedly increased | dose-limiting toxicities (kind) [1]: palmar–plantar erythrodysesthesia and phototoxicity | dose recommended for further study ([1]; intravenously once every 3 weeks (q3w)): 170 mg/m^2 | Diarrhea, any causality, all grades (patients) ([2]; 50 mg/m^2 d1,8, N patients 4): 2 | Dry eye, any causality, all grades (patients) ([2]; 50 mg/m^2 d1,8, N patients 4): 1 | Fatigue, any causality, all grades (patients) ([2]; 50 mg/m^2 d1,8, N patients 4): 4 | Headache, any causality, all grades (patients) ([2]; 50 mg/m^2 d1,8, N patients 4): 1 | Nausea, any causality, all grades (patients) ([2]; 50 mg/m^2 d1,8, N patients 4): 3 | Palmar–plantar erythrodysesthesia syndrome, any causality, all grades (patients) ([2]; 50 mg/m^2 d1,8, N patients 4): 1 | Phototoxicity, any causality, all grades (patients) ([2]; 50 mg/m^2 d1,8, N patients 4): 2 | Phototoxicity, number in parentheses (undefined in table; fits grade 3–4 count) ([2]; 50 mg/m^2 d1,8, N patients 4): 1 | Diarrhea, any causality, all grades (patients) ([2]; 100 mg/m^2 d1,8, N patients 4): 1 | Dry eye, any causality, all grades (patients) ([2]; 100 mg/m^2 d1,8, N patients 4): 1 | Eye phototoxicity, any causality, all grades (patients) ([2]; 100 mg/m^2 d1,8, N patients 4): 1 | Fatigue, any causality, all grades (patients) ([2]; 100 mg/m^2 d1,8, N patients 4): 3 | Headache, any causality, all grades (patients) ([2]; 100 mg/m^2 d1,8, N patients 4): 3 | Mucositis oral, any causality, all grades (patients) ([2]; 100 mg/m^2 d1,8, N patients 4): 2 | Nausea, any causality, all grades (patients) ([2]; 100 mg/m^2 d1,8, N patients 4): 3 | Palmar–plantar erythrodysesthesia syndrome, any causality, all grades (patients) ([2]; 100 mg/m^2 d1,8, N patients 4): 1 | Phototoxicity, any causality, all grades (patients) ([2]; 100 mg/m^2 d1,8, N patients 4): 1 | Diarrhea, any causality, all grades (patients) ([2]; 150 mg/m^2 d1,8, N patients 4): 1 | Dry eye, any causality, all grades (patients) ([2]; 150 mg/m^2 d1,8, N patients 4): 2 | Fatigue, any causality, all grades (patients) ([2]; 150 mg/m^2 d1,8, N patients 4): 3 | Headache, any causality, all grades (patients) ([2]; 150 mg/m^2 d1,8, N patients 4): 2 | Mucositis oral, any causality, all grades (patients) ([2]; 150 mg/m^2 d1,8, N patients 4): 1 | Nausea, any causality, all grades (patients) ([2]; 150 mg/m^2 d1,8, N patients 4): 4 | Palmar–plantar erythrodysesthesia syndrome, any causality, all grades (patients) ([2]; 150 mg/m^2 d1,8, N patients 4): 1 | Phototoxicity, any causality, all grades (patients) ([2]; 150 mg/m^2 d1,8, N patients 4): 1 | ALT, Grade 3 or 4 (patients) ([2]; 150 mg/m^2 d1,8, N pts 4): 2 | AST, Grade 3 or 4 (patients) ([2]; 150 mg/m^2 d1,8, N pts 4): 2 | Alkaline phosphatase, Grade 3 or 4 (patients) ([2]; 150 mg/m^2 d1,8, N pts 4): 1 | Bilirubin, Grade 3 or 4 (patients) ([2]; 150 mg/m^2 d1,8, N pts 4): 1 | Neutropenia, Grade 3 or 4 (patients) ([2]; 150 mg/m^2 d1,8, N pts 4): 1 | Thrombocytopenia, Grade 3 or 4 (patients) ([2]; 150 mg/m^2 d1,8, N pts 4): 1 | Diarrhea, any causality, all grades (patients) ([2]; 200 mg/m^2 d1,8, N patients 4): 2 | Dry eye, any causality, all grades (patients) ([2]; 200 mg/m^2 d1,8, N patients 4): 1 | Fatigue, any causality, all grades (patients) ([2]; 200 mg/m^2 d1,8, N patients 4): 2 | Nausea, any causality, all grades (patients) ([2]; 200 mg/m^2 d1,8, N patients 4): 3 | Phototoxicity, any causality, all grades (patients) ([2]; 200 mg/m^2 d1,8, N patients 4): 2 | ALT, Grade 3 or 4 (patients) ([2]; 200 mg/m^2 d1,8, N pts 4): 1 | AST, Grade 3 or 4 (patients) ([2]; 200 mg/m^2 d1,8, N pts 4): 1 | Anemia, Grade 3 or 4 (patients) ([2]; 200 mg/m^2 d1,8, N pts 4): 1 | Fatigue, any causality, all grades (patients) ([2]; 250 mg/m^2 d1,8, N patients 3): 2 | Headache, any causality, all grades (patients) ([2]; 250 mg/m^2 d1,8, N patients 3): 1 | Mucositis oral, any causality, all grades (patients) ([2]; 250 mg/m^2 d1,8, N patients 3): 1 | Nausea, any causality, all grades (patients) ([2]; 250 mg/m^2 d1,8, N patients 3): 2 | Palmar–plantar erythrodysesthesia syndrome, any causality, all grades (patients) ([2]; 250 mg/m^2 d1,8, N patients 3): 2 | Phototoxicity, any causality, all grades (patients) ([2]; 250 mg/m^2 d1,8, N patients 3): 3 | Phototoxicity, number in parentheses (undefined in table; fits grade 3–4 count) ([2]; 250 mg/m^2 d1,8, N patients 3): 1 | Dry eye, any causality, all grades (patients) [2, 3]: 1 | Eye phototoxicity, any causality, all grades (patients) [2, 3]: 1 | Fatigue, any causality, all grades (patients) [2, 3]: 2 | Nausea, any causality, all grades (patients) [2, 3]: 1 | Palmar–plantar erythrodysesthesia syndrome, any causality, all grades (patients) [2, 3]: 1 | Phototoxicity, any causality, all grades (patients) [2, 3]: 4 | Phototoxicity, number in parentheses (undefined in table; fits grade 3–4 count) [2, 3]: 1 | AST, Grade 3 or 4 (patients) ([2]; 325 mg/m^2 d1,8,15, N pts 4): 1 | Neutropenia, Grade 3 or 4 (patients) ([2]; 325 mg/m^2 d1,8,15, N pts 4): 1 | Diarrhea, any causality, all grades (patients) ([2]; 325 mg/m^2 d1,8, N patients 3): 1 | Fatigue, any causality, all grades (patients) ([2]; 325 mg/m^2 d1,8, N patients 3): 3 | Fatigue, number in parentheses (undefined in table; fits grade 3–4 count) ([2]; 325 mg/m^2 d1,8, N patients 3): 1 | Nausea, any causality, all grades (patients) ([2]; 325 mg/m^2 d1,8, N patients 3): 2 | Nausea, number in parentheses (undefined in table; fits grade 3–4 count) ([2]; 325 mg/m^2 d1,8, N patients 3): 1 | Palmar–plantar erythrodysesthesia syndrome, any causality, all grades (patients) ([2]; 325 mg/m^2 d1,8, N patients 3): 1 | Phototoxicity, any causality, all grades (patients) ([2]; 325 mg/m^2 d1,8, N patients 3): 1 | Eye phototoxicity, any causality, all grades (patients) ([2]; 475 mg/m^2 d1,8, N patients 3): 1 | Fatigue, any causality, all grades (patients) ([2]; 475 mg/m^2 d1,8, N patients 3): 2 | Mucositis oral, any causality, all grades (patients) ([2]; 475 mg/m^2 d1,8, N patients 3): 1 | Nausea, any causality, all grades (patients) ([2]; 475 mg/m^2 d1,8, N patients 3): 1 | Palmar–plantar erythrodysesthesia syndrome, any causality, all grades (patients) ([2]; 475 mg/m^2 d1,8, N patients 3): 1 | Phototoxicity, any causality, all grades (patients) ([2]; 475 mg/m^2 d1,8, N patients 3): 3 | Diarrhea, any causality, all grades (patients) [2, 4]: 1 | Dry eye, any causality, all grades (patients) [2, 4]: 1 | Eye phototoxicity, any causality, all grades (patients) [2, 4]: 3 | Fatigue, any causality, all grades (patients) [2, 4]: 3 | Fatigue, number in parentheses (undefined in table; fits grade 3–4 count) [2, 4]: 1 | Headache, any causality, all grades (patients) [2, 4]: 1 | Mucositis oral, any causality, all grades (patients) [2, 4]: 2 | Nausea, any causality, all grades (patients) [2, 4]: 3 | Palmar–plantar erythrodysesthesia syndrome, any causality, all grades (patients) [2, 4]: 1 (1) | Palmar–plantar erythrodysesthesia syndrome, number in parentheses (undefined in table; fits grade 3–4 count) [2, 4]: 1 (1) | Phototoxicity, any causality, all grades (patients) [2, 4]: 3 | Phototoxicity, number in parentheses (undefined in table; fits grade 3–4 count) [2, 4]: 1 | Alkaline phosphatase, Grade 3 or 4 (patients) ([2]; 650 mg/m^2 d1,8,15, N pts 5): 1 | Neutropenia, Grade 3 or 4 (patients) ([2]; 650 mg/m^2 d1,8,15, N pts 5): 2 | toxicity to ionizing radiation ([2]; 13 patients who received radiotherapy during or following treatment): no excess toxicity to ionizing radiation | Treatment-related Dry eye, Grade 3–4, % ([2]; 40 treated patients): 0% | Treatment-related Dry eye, Total, % ([2]; 40 treated patients): 10% | Treatment-related Eye phototoxicity, Grade 1–2, % ([2]; 40 treated patients): 20% | Treatment-related Eye phototoxicity, Grade 3–4, % ([2]; 40 treated patients): 0% | Treatment-related Eye phototoxicity, Total, % ([2]; 40 treated patients): 20% | Treatment-related Headache, Grade 1–2, % ([2]; 40 treated patients): 12.5% | Treatment-related Headache, Grade 3–4, % ([2]; 40 treated patients): 0% | Treatment-related Headache, Total, % ([2]; 40 treated patients): 12.5% | Treatment-related Mucositis oral, Grade 1–2, % ([2]; 40 treated patients): 15% | Treatment-related Mucositis oral, Grade 3–4, % ([2]; 40 treated patients): 0% | Treatment-related Mucositis oral, Total, % ([2]; 40 treated patients): 15% | Treatment-related Nausea, Grade 1–2, % ([2]; 40 treated patients): 42.5% | Treatment-related Nausea, Grade 3–4, % ([2]; 40 treated patients): 2.5% | Treatment-related Nausea, Total, % ([2]; 40 treated patients): 45% | Treatment-related Palmar–plantar erythrodysesthesia, Grade 1–2, % ([2]; 40 treated patients): 20% | Treatment-related Palmar–plantar erythrodysesthesia, Grade 3–4, % ([2]; 40 treated patients): 2.5% | Treatment-related Palmar–plantar erythrodysesthesia, Total, % ([2]; 40 treated patients): 22.5% | Treatment-related Phototoxicity (skin), Grade 3–4, % ([2]; 40 treated patients): 15% | Treatment-related Phototoxicity (skin), Total, % ([2]; 40 treated patients): 60% | grade 3 or 4 related AE: nausea [2, 5]: 2.5% | grade 3 or 4 related AE: palmar–plantar erythrodysesthesia syndrome [2, 5]: 2.5% | grade 3 or 4 related AE: skin phototoxicity [2, 5]: 15% | Diarrhea, any causality, all grades (patients) [2, 6]: 1 | Eye phototoxicity, any causality, all grades (patients) [2, 6]: 2 | Fatigue, any causality, all grades (patients) [2, 6]: 5 | Fatigue, number in parentheses (undefined in table; fits grade 3–4 count) [2, 6]: 2 | Headache, any causality, all grades (patients) [2, 6]: 2 | Nausea, any causality, all grades (patients) [2, 6]: 6 | Palmar–plantar erythrodysesthesia syndrome, any causality, all grades (patients) [2, 6]: 1 | Phototoxicity, any causality, all grades (patients) [2, 6]: 4 | Phototoxicity, number in parentheses (undefined in table; fits grade 3–4 count) [2, 6]: 2 | Anemia, Grade 3 or 4 (patients) ([2]; 475* mg/m^2 d1,8,15, N pts 6): 2 | Dose-limiting toxicities (number) ([2]; Dose level 9, 650 mg/m^2/dose, Day 1, 8 & 15 Q4 weeks, 5 enrolled, one occurred after cycle 1): 2 ** | maximal administered dose (MAD) ([2]; d1, 8, 15 (DL9)): 650 mg/m^2 | recommended phase II dose (RP2D) ([2]; days 1, 8 and 15 every 4 weeks, 60-minute intravenous infusion): 475 mg/m^2 | SAEs considered related to CX-5461 ([2]; grade 3 phototoxicity (DL0), grade 2 eye phototoxicity (DL8), grade 3 phototoxicity (DL8)): 3 | serious AEs (SAEs) reported ([2]; in 13 patients): Sixteen | dose-limiting toxicity (kind) ([2]; in vivo): phototoxicity | participants with dose omission because of phototoxicity ([2]; in vivo): six | participants with dose reductions because of phototoxicity ([2]; in vivo): two | patients discontinuing therapy because of phototoxicity ([2]; in vivo): one
